Experimental data: publication PMC7026387, “Improved Prediction of Aqueous Solubility of Novel Compounds by Going Deeper With Deep Learning” (Frontiers in Oncology, 2020)
Values after ≈ are worked out from the molar mass of the structure shown. Like-named read-outs stand apart in the source and are kept apart here. One block for each compound: values may come before it.

Columns and labels:
[1] = cited from earlier work; for LogS_exp: experimental aqueous solubility: literature S values converted to mol/L and transformed into logS; for Experimental S value: room-temperature, around pH 7.0
[2] = Aqueous solubility (pH 7) by modified shake flask method and RP-HPLC; type: physicochemical
Description: In one of our drugs discovering projects toward antitumor therapeutics, a series of novel FLT3 inhibitors were designed and synthesized using the structure-based drug design methods. The aqueous solubilities (pH = 7) of these compounds were measured using the modified shake flask method and RP-HPLC ([34], [35]). Each compound was added into a 1.5 mL Eppendorf tube containing Milli-Q water (1 mL) to form the precipitates at 25°C. Then the mixture was subjected to a solubility-equilibrium stage. The tube was shook at 300 rpm at 25°C for 24 h. The precipitate was separated by centrifugation at 23,000 g for 20 min. Subsequently, 0.25 mL of supernatant was transferred into a 1 mL Eppendorf tube, and it was centrifuged again with the same settings used above. The supernatant was then used for HPLC analysis. An Agilent 1260 Infinity LC system (Agilent Technologies, Inc., Santa Clara, California) was used. For HPLC conditions, a ZORBAX SB-C18 column (5 μM, 4.6 × 150 mm; Agilent), a flow rate of 0.8 mL/min for mobile phase, a UV wavelength of 250 nm and a column temperature of 30°C were used. The sample was injected automatically by a mechanical arm and separated by a constant mixture of methanol/PBS (pH 5.6), 90:10. For each compound, a standard curve consisting of four concentrations was established. The synthetic methods of all but compound SC5 and SC6 have been published in literatures ([36]–[39]). The synthetic methods of SC5 and SC6 are described in Supplementary Method 1.

[3] = method NA, ref Hamdy et al., 2017
[4] = by HPLC, ref Thompson et al., 2018
[5] = Milli-Q water, pH 7, 25°C, 24 h shaking, RP-HPLC, read-out: Experimental S value

SMILES: COC1=C/C(=N/NC(=O)c2ccncc2)C[C@@H](C)[C@]12Oc1c(Cl)c(OC)cc(OC)c1C2=O (relative stereo) [NC4]
LogS_exp: experimental aqueous solubility [1]: -4.576 logarithmic units of mol/L | Experimental S value [1, 3]: 12.53 µg/mL

SMILES: COc1cc(OC)c2c(c1Cl)O[C@]1(C2=O)C(OCc2ccccc2)=C/C(=N\OCC(=O)O)C[C@H]1C (relative stereo) [NC5]
LogS_exp: experimental aqueous solubility [1]: -4.254 logarithmic units of mol/L | Experimental S value [1, 3]: 27.94 µg/mL

SMILES: CN(Cc1ccc(C(F)(F)F)cc1)c1cc(C(=O)Nc2ncn(C)n2)ncn1 [NC2]
LogS_exp: experimental aqueous solubility [1]: -3.762 logarithmic units of mol/L | Experimental S value ([1]; method NA, ref Wilson et al., 2017): 173 µM

SMILES: O=C(Nc1ccccc1OC(F)(F)F)N[C@@H]1COc2nc([N+](=O)[O-])cn2C1 [NC3]
Experimental S value [1, 4]: 22 µg/mL | LogS_exp: experimental aqueous solubility [1]: -4.246 logarithmic units of mol/L

SMILES: O=C(/C=C(/C=C/c1cccnc1)NCCO)/C=C/c1cccnc1 [NC6]
Experimental S value ([1]; by shake flask method and colorimetry, ref Theppawong et al., 2018): 4350.8 µM | LogS_exp: experimental aqueous solubility [1]: -2.361 logarithmic units of mol/L

SMILES: O=[N+]([O-])c1cn2c(n1)OC[C@H](Oc1ccc(C(F)(F)F)cn1)C2 [NC7]
Experimental S value [1, 4]: 110 µg/mL

solubility thermodynamic at 24 h [2, 5]: 30.7 µg/mL (≈ 174 µM)
SMILES: N#CCC(=O)c1cc(C#N)cs1 [SC1]

solubility thermodynamic at 24 h ([2]; pH 7, water): 31.7 µg/mL (≈ 167 µM)
SMILES: N#Cc1csc(-c2cc(N)[nH]n2)c1 [SC2]

solubility thermodynamic at 24 h [2, 5]: 60.7 µg/mL (≈ 124 µM)
SMILES: Cc1nc(Nc2c[nH]nc2C(=O)Nc2ccc(CN3CCOCC3)cc2)c2cc(C(C)C)sc2n1 [SC3]

Experimental S value ([2]; Milli-Q water, pH 7, 25°C, 24 h shaking, RP-HPLC): 0.10491 mg/mL | solubility thermodynamic at 24 h [2, 5]: 105 µg/mL (≈ 185 µM)
SMILES: Cc1nc2c(c(-c3nc(Nc4c[nH]nc4C(=O)Nc4ccc(N5CCNCC5)cc4)c4ccsc4n3)n1)CCCC2 [SC4]

melting point: 236 to 238 °C | Experimental S value ([2]; 24 h, pH 7): 0.019714 mg/mL | solubility thermodynamic at 24 h ([2]; pH 7, water): 19.7 µg/mL (≈ 41.8 µM)
SMILES: COc1ccc(Oc2ccc3c(NC(=O)c4ccc(NC5CCN(C)CC5)cc4)n[nH]c3c2)cc1 [SC5]

solubility thermodynamic at 24 h ([2]; pH 7, water): < 10 µg/mL
SMILES: CN1CCC(Nc2ccc(C(=O)Nc3n[nH]c4cc(Oc5ccccc5)ccc34)cc2)CC1 [SC6]
